Laboratory results: patent US20080108665A1, “Use of N-substituted sulfoximines for control of invertebrate pests” (priority 2006, published 2008)

How the values were obtained:
Assay type in all cases: in vivo
[1] = test system: Green Leafhopper (Nephotettix sp.); assay: Green leafhopper root uptake assay on rice; settings: 6-day observation
Protocol: (§1) These assays were designed to evaluate the possibility of using compounds of the invention for applications such as nursing trays, transplanting water and/or irrigation. Root-uptake systemic assays were performed on both brown planthopper and green leafhopper. Four-week-old rice seedlings were submerged in 3-cm depth of water in the bottom portion (high 5 cm, diameter 3 cm) of a 2-part glass cylinder (high 18 cm, diameter 3 cm). A metal screen was used to hold the seedlings within the bottom portion. Scotch tape was used to bind the two portions of the cylinder after setting up the seedlings. A metal cap was used to cover the cylinder. There were 4 cylinders for each treatment. The test compound was dissolved in acetone to make a 10,000 ppm stock solution which was incorporated at final test concentrations of 5, 2, 1, 0.5, 0.25 ppm in the water in which rice seedlings were submerged. Five laboratory-reared 3rd instar nymphs of brown planthopper or green leafhopper were introduced into each cylinder 3 hr after insecticide application. The treated test units were kept in a growth chamber with conditions set as followings: Temperature 28±0.5° C.; Relative humidity 70±0.5%; Photoperiod 14 hr light: […].

[2] = test system: Brown Planthopper (Nilaparvata lugens); assay: Brown planthopper root uptake assay on rice; settings: 6-day observation
Protocol: as §1

[3] = test system: Brown Dog Tick (Rhipicephalus sanguineus); assay: Brown dog tick glass plate assay; settings: 48-hour exposure, mean
Protocol: Compound (2) was evaluated in a dose response series to establish the range of activity of the test compound. Technical material was dissolved in acetone and diluted with the same solvent to obtain the test concentrations. Tick bioassays were conducted by applying 1.0 ml of the test substance to clean dry glass plates confined by 10 cm grease pencil circles drawn on the plates and spread evenly with an acid brush. The plates were allowed to dry for at least 1 hour before adult ticks were confined to the treated substrate using 10 cm Petri dish lids. Each treatment was replicated 5 times. Approximately 5 adult ticks were placed into each replicate. Mortality was assessed at 2, 8, 24 and 48 hours after introduction of the ticks into the test system. The mean percent mortality for each dosage group and time interval was determined and results from the 48-hour observation are presented in Table 9.

[4] = test system: Cotton Aphid (Aphis gossypii); assay: Cotton aphid seed coating assay on squash; settings: for % Control, seed coating systemic: 1st leaf infested 13 days after planting
Protocol: Selected compounds of the invention were tested in assays designed to evaluate its systemic activity for control of cotton aphid through seed-coating prior to planting. The crop used in these assays was a hybrid squash (var. Pic-N-Pic). Test compound was formulated in a 10% SC formulation. Ten squash seeds were used for each treatment. Seeds were placed on waxed paper and a pipette was used to apply the original or diluted formulations to each seed. The air-dried, treated seeds were individually planted into 3 inch pots containing metro mix. The pots were placed on a California cart and moved into the greenhouse for sub watering only. At the specified number of days after planting, the plants were infested with approximately 40 wingless aphids. The infested plants were kept in an environmental holding room (23° C., 40% RH, 16 hr light: 8 hr dark) for three days before the number of live aphids was counted under a microscope. Calculations for % Control were based on a corrected basis compared to the populations on the reference plants germinated from seeds treated with the formulation blank.
Corrected % Control=100*(X−Y)/X • where X=No. of live aphids on reference plants • Y=No. of live aphids on treated plants Assay 1. Compounds (1) and (2) were tested at 3 mg/seed. The original 10% SC formulation was used. One half (15 ul) of the sample was spread onto one side of a seed. Once dried (approximately 1 hr), the seed was flipped over and the 2nd half of sample was spread over the other side. Fourteen and 25 days after planting, aphid infestations were conducted on the 1st and 2nd true leaves, respectively.
Assay 2. Compound (2) was tested at 0.1 and 1 mg/seed. For the 1 mg/seed treatment, the original 10% formulation was used. For the 0.1 mg/seed treatment, the 10% formulation were diluted 10× with DI water before application. One half (5 ul) of the sample was spread onto one side of a seed. Once dried (approximately 1 hr), the seed was flipped over and the 2nd half of sample was spread over the other side. Thirteen days after planting, the 1st leaf was infested.

[5] = test system: Cat Flea (Ctenocephalides felis); assay: Cat flea filter wool assay; settings: 48-hour exposure, mean
Protocol: Compound (2) was evaluated in a dose response series to establish the range of activity of the test compound. Technical material was dissolved in acetone and diluted with the same solvent to obtain the test concentrations. Bioassays were conducted by treating polyester aquarium filter wool with 1.0 ml of the test solution, thoroughly saturating the substrate and allowing it to dry for at least 1 hour. The dry filter wool was then placed into 10 cm plastic Petri dishes and covered with the lid. Each treatment was replicated 5 times. Approximately 15 unfed cat flea adults were placed into each replicate of each dosage being evaluated. Mortality was assessed at 2, 8, 24 and 48 hours after introduction of the fleas into the test system. The mean percent mortality for each dosage group and time interval was determined and results from the 48-hour observation are presented in Table 8.

[6] = test system: Bird Cherry-Oat Aphid (Rhopalosiphum padi); assay: Bird cherry-oat aphid seed coating assay on wheat; settings: 1.34 mg/seed, 10% SC formulation, 4 days after infestation
Protocol: Twenty spring wheat (Triticum aestivum var. Yuma) seeds were placed on a waxed paper. A pipette was used to apply a 10% SC formulation of the test compound to each seed. Two application of 6.7 μl each were applied to a seed, waiting until the seed was air-dried between applications. The total amount of active ingredient applied to each seed was 1.34 mg. All coated seeds are planted into 3 inch pots containing greenhouse metro mix, with 4 seeds used in each pot. An appropriate number of untreated seeds was also planted for control. The pots are placed on a California cart and moved into a greenhouse for initial and subsequent sub-watering. When the plants had germinated and grown to the 1-2 leaf unfurled stage, they were infested with bird cherry-oat aphid. The infested plants were held in an environmental chamber (23° C., 40% RH, 16 hr light: 8 hr dark) for 4 days before an assessment of aphid populations was conducted. Calculations for % Control are based on a corrected basis compared to the populations on the untreated controls.
Corrected % Control=100*(X−Y)/X • where X=No. of live aphids on untreated plants • Y=No. of live aphids on treated plants

[7] = 3 mg/seed, 10% SC formulation, counted 3 days after infestation

With CC(c1ccc(Cl)nc1)S(C)(=O)=NC#N (centres unmarked) [Compound 2, [1-(6-chloropyridin-3-yl)ethyl](methyl)oxido-λ^4-sulfanylidenecyanamide] the “% Control, root uptake systemic Green leafhopper” value ([1]; 0.25 ppm in water) was 45%, the “% Control, root uptake systemic Green leafhopper” value ([1]; 0.50 ppm in water) was 65% and the “% Control, root uptake systemic Green leafhopper” value ([1]; 1.00 ppm in water) was 100%. For the same compound, the “% Control, root uptake systemic Green leafhopper” value ([1]; 2.00 ppm in water) was 100%, the “% Control, root uptake systemic Green leafhopper” value ([1]; 5.00 ppm in water) was 100% and the “% Control, root uptake systemic Brown planthopper” value ([2]; 0.25 ppm in water) was 55%. The “% Control, root uptake systemic Brown planthopper” value ([2]; 0.50 ppm in water) was 80%, the “% Control, root uptake systemic Brown planthopper” value ([2]; 1.00 ppm in water) was 100% and the “% Control, root uptake systemic Brown planthopper” value ([2]; 2.00 ppm in water) was 100%. For the same compound, the “% Control, root uptake systemic Brown planthopper” value ([2]; 5.00 ppm in water) was 100%, the mortality at 5 ppm ([3]; 5.0 ppm) was 52% and the mortality at 50 ppm ([3]; 50.0 ppm) was 56%. For the same compound, the mortality at 500 ppm ([3]; 500.0 ppm) was 84%, the “% Control, seed coating systemic” value ([4]; 0.1 mg/seed) was 36.5% and the “% Control, seed coating systemic” value ([4]; 1 mg/seed) was 99.8%. For the same compound, the “% Control, seed coating systemic 1st leaf, 14 days after planting” value [4, 7] was 100%, the “% Control, seed coating systemic 2nd leaf, 25 days after planting” value [4, 7] was 99.8% and the “% Flea mortality” value ([5]; 5,000.0 ppm) was 100%. For the same compound, the mortality at 0.5 ppm ([5]; Ctenocephalides felis, 0.5 ppm) was 52.4%, the mortality at 5 ppm ([5]; Ctenocephalides felis, 5.0 ppm) was 74.4% and the mortality at 50 ppm ([5]; Ctenocephalides felis, 50.0 ppm) was 76.6%. The mortality at 500 ppm ([5]; Ctenocephalides felis, 500.0 ppm) was 83.8% and the “% Control, seed coating systemic” value [6] was 100%.
